Structures can show the parent of a compound that is named as a salt.
Experiments:
[1] = molecular target: T1, human JAK1 (a.a. 837-1142) (Homo sapiens, UniProt P23458); experiment: In vitro JAK kinase assay (HTRF, phosphorylation of a biotinylated peptide), JAK1; format: biochemical
T1 construct: human JAK1 (a.a. 837-1142); His tag (N); made in house; host or cells: insect cells (baculovirus)
Outline: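 His-tagged catalytic domains (JAK1 a.a. 837-1142, JAK2 a.a. 828-1132) from insect cells phosphorylate 500 nM biotinylated peptide in 50 mM Tris pH 7.8, 100 mM NaCl, 5 mM DTT; ATP at Km (90 μM JAK1, 30 μM JAK2) or 1 mM, as indicated. 1 h at RT; EDTA stop, HTRF readout; IC50s.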

Jak2 (a.a. 828-1132) = molecular target: T2, Jak2 (a.a. 828-1132) (Homo sapiens, UniProt O60674); experiment: In vitro JAK kinase assay (HTRF, phosphorylation of a biotinylated peptide), JAK2, reported as JAK2/JAK1 ratio; format: biochemical
T2 construct: Jak2 (a.a. 828-1132); His tag (N); made in house; host or cells: insect cells (baculovirus)

[2] = Assay Conditions Km (ATP 90 μM for Jak1)
[3] = Assay Conditions Km (ATP 90 μM for Jak1, 30 μM for Jak2)

T2 sequence (O60674 828-1132): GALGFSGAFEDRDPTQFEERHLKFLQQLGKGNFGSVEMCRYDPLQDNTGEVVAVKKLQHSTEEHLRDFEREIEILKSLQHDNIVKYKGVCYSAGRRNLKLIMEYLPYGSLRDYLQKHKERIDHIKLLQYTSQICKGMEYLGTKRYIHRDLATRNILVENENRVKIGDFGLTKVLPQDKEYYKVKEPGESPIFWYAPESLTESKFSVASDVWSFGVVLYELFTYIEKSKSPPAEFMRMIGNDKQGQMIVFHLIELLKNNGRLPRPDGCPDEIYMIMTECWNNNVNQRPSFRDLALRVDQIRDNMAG
T1 sequence (P23458 849-1154): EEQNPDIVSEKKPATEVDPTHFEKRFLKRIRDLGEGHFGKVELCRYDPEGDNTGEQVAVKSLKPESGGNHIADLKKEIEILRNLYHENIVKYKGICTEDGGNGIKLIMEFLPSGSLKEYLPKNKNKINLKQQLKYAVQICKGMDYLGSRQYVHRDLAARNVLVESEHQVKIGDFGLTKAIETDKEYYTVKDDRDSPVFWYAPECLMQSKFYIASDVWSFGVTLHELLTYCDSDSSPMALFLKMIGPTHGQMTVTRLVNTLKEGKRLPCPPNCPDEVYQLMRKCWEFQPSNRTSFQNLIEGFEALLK

N#CCC(C1CCN(c2nc3cccc(F)c3o2)C1)n1ccc(-c2ncnc3[nH]ccc23)c1 (single isomer, unassigned) [Example 158-1, 3-[1-(7-fluoro-1,3-benzoxazol-2-yl)pyrrolidin-3-yl]-3-[3-(7H-pyrrolo[2,3-d]pyrimidin-4-yl)-1H-pyrrol-1-yl]propanenitrile]
IC50 ([1]; Assay Conditions 1 mM ATP): < 50 nM
JAK2/JAK1 IC50 ratio (Jak2 (a.a. 828-1132); Assay Conditions 1 mM ATP): 22.5

N#CC[C@@H]([C@H]1CCN(c2scc(C#N)c2C#N)C1)n1cc(-c2ncnc3[nH]ccc23)cn1 [Example 79, 2-((3S)-3-{(1S)-2-cyano-1-[4-(7H-pyrrolo[2,3-d]pyrimidin-4-yl)-1H-pyrazol-1-yl]ethyl}pyrrolidin-1-yl)thiophene-3,4-dicarbonitrile]
IC50 ([1]; Assay Conditions 1 mM ATP): < 50 nM
JAK2/JAK1 IC50 ratio (Jak2 (a.a. 828-1132); Assay Conditions 1 mM ATP): 20.0

N#CCC(C1CCN(c2ccnc(Cl)n2)C1)n1cc(-c2ncnc3[nH]ccc23)cn1 (single isomer, unassigned) [3, Step 2b]
IC50 [1, 2]: < 50 nM
JAK2/JAK1 IC50 ratio (Jak2 (a.a. 828-1132); [3]): 8.5

N#CC[C@@H]([C@H]1CCN(c2nc(Cl)c(CO)cc2F)C1)n1cc(-c2ncnc3[nH]ccc23)cn1 [Example 90, (3S)-3-{(3S)-1-[6-chloro-3-fluoro-5-(hydroxymethyl)pyridin-2-yl]pyrrolidin-3-yl}-3-[4-(7H-pyrrolo[2,3-d]pyrimidin-4-yl)-1H-pyrazol-1-yl]propanenitrile trifluoroacetate]
IC50 ([1]; Assay Conditions 1 mM ATP): < 50 nM
JAK2/JAK1 IC50 ratio (Jak2 (a.a. 828-1132); Assay Conditions 1 mM ATP): 4.3

N#CC[C@@H]([C@H]1CCN(c2nc3ccsc3cc2C#N)C1)n1cc(-c2ncnc3[nH]ccc23)cn1 [Example 75, 5-((3S)-3-{(1S)-2-cyano-1-[4-(7H-pyrrolo[2,3-d]pyrimidin-4-yl)-1H-pyrazol-1-yl]ethyl}pyrrolidin-1-yl)thieno[3,2-b]pyridine-6-carbonitrile]
IC50 ([1]; Assay Conditions 1 mM ATP): < 50 nM
JAK2/JAK1 IC50 ratio (Jak2 (a.a. 828-1132); Assay Conditions 1 mM ATP): 4.6

N#CC[C@@H]([C@H]1CCN(c2cccnc2C#N)C1)n1cc(-c2ncnc3[nH]ccc23)cn1 [Example 68, 3-((3S)-3-{(1S)-2-cyano-1-[4-(7H-pyrrolo[2,3-d]pyrimidin-4-yl)-1H-pyrazol-1-yl]ethyl}pyrrolidin-1-yl) pyridine-2-carbonitrile trifluoroacetate salt]
IC50 ([1]; Assay Conditions 1 mM ATP): < 50 nM
JAK2/JAK1 IC50 ratio (Jak2 (a.a. 828-1132); Assay Conditions 1 mM ATP): 8.2

N#CCC(C1CCN(c2nccc(C#N)c2C#N)C1)n1cc(-c2ncnc3[nH]ccc23)cn1 (racemic) [Example 39, ±2-(3-{2-cyano-1-[4-(7H-pyrrolo[2,3-d]pyrimidin-4-yl)-1H-pyrazol-1-yl]ethyl}pyrrolidin-1-yl)pyridine-3,4-dicarbonitrile trifluoroacetate]
IC50 ([1]; Assay Conditions 1 mM ATP): < 50 nM
JAK2/JAK1 IC50 ratio (Jak2 (a.a. 828-1132); Assay Conditions 1 mM ATP): 15.5

N#CCC(C1CCN(c2ccnc(S)n2)C1)n1cc(-c2ncnc3[nH]ccc23)cn1 (single isomer, unassigned) [Example 150, 3-[1-(2-mercaptopyrimidin-4-yl)pyrrolidin-3-yl]-3-[4-(7H-pyrrolo[2,3-d]pyrimidin-4-yl)-1H-pyrazol-1-yl]propanenitrile]
IC50 ([1]; Assay Conditions 1 mM ATP): < 50 nM
JAK2/JAK1 IC50 ratio (Jak2 (a.a. 828-1132); Assay Conditions 1 mM ATP): 3.2

FCC([C@H]1CCN(c2nc3cccnc3o2)C1)n1cc(-c2ncnc3[nH]ccc23)cn1 (stereo partly drawn) [70 (3S- enantiomer), 2-((3S)-3-{2-fluoro-1-[4-(7H-pyrrolo[2,3-d]pyrimidin-4-yl)-1H-pyrazol-1-yl]ethyl}pyrrolidin-1-yl)[1,3]oxazolo[5,4-b]pyridine phosphoric acid salt]
IC50 ([1]; Assay Conditions 1 mM ATP): < 50 nM
JAK2/JAK1 IC50 ratio (Jak2 (a.a. 828-1132); Assay Conditions 1 mM ATP): 15

CS(=O)(=O)c1ccc(F)c(N2CC[C@H]([C@H](CC#N)n3cc(-c4ncnc5[nH]ccc45)cn3)C2)n1 [Example 133, (3S)-3-{(3S)-1-[3-fluoro-6-(methylsulfonyl)pyridin-2-yl]pyrrolidin-3-yl}-3-[4-(7H-pyrrolo [2,3-d]pyrimidin-4-yl)-1H-pyrazol-1-yl] propanenitrile trifluoroacetate]
IC50 ([1]; Assay Conditions 1 mM ATP): 50 to 100 nM
JAK2/JAK1 IC50 ratio (Jak2 (a.a. 828-1132); Assay Conditions 1 mM ATP): 3

N#CCC(C1CCN(c2scnc2C#N)C1)n1ccc(-c2ncnc3[nH]ccc23)c1 (racemic) [Example 149-2, 5-(3-{2-cyano-1-[3-(7H-pyrrolo[2,3-d]pyrimidin-4-yl)-1H-pyrrol-1-yl]ethyl}pyrrolidin-1-yl)-1,3-thiazole-4-carbonitrile]
IC50 ([1]; Assay Conditions 1 mM ATP): < 50 nM
JAK2/JAK1 IC50 ratio (Jak2 (a.a. 828-1132); Assay Conditions 1 mM ATP): 4.5

N#CCC(C1CCN(c2nc3cccnc3o2)C1)n1ccc(-c2ncnc3[nH]ccc23)c1 (single isomer, unassigned) [32, Step 2a, enantiomer 2]
IC50 [1, 2]: < 50 nM
JAK2/JAK1 IC50 ratio (Jak2 (a.a. 828-1132); [3]): 5.7

N#CCC(C1CCN(c2ncc3ccsc3c2C#N)C1)n1ccc(-c2ncnc3[nH]ccc23)c1 (racemic) [Example 176-rac, 6-(3-{2-cyano-1-[3-(7H-pyrrolo[2,3-d]pyrimidin-4-yl)-1H-pyrrol-1-yl]ethyl}pyrrolidin-1-yl)thieno[3,2-c]pyridine-7-carbonitrile]
IC50 ([1]; Assay Conditions 1 mM ATP): < 50 nM
JAK2/JAK1 IC50 ratio (Jak2 (a.a. 828-1132); Assay Conditions 1 mM ATP): 53.3

N#CCC(C1CCN(c2nc3ncccc3o2)C1)n1cc(-c2ncnc3[nH]ccc23)cn1 (single isomer, unassigned) [Example 12, 3-(1-[1,3]oxazolo[4,5-b]pyridin-2-ylpyrrolidin-3-yl)-3-[4-(7H-pyrrolo[2,3-d]pyrimidin-4-yl)-1H-pyrazol-1-yl]propanenitrile]
IC50 [1, 2]: < 50 nM
JAK2/JAK1 IC50 ratio (Jak2 (a.a. 828-1132); [3]): 2.4

N#CC[C@@H]([C@H]1CCN(c2nc(Cl)c(F)cc2N)C1)n1cc(-c2ncnc3[nH]ccc23)cn1.O=C(O)C(F)(F)F.O=C(O)C(F)(F)F [Example 91B, (3S)-3-[(3S)-1-(3-amino-6-chloro-5-fluoropyridin-2-yl)pyrrolidin-3-yl]-3-[4-(7H-pyrrolo[2,3-d]pyrimidin-4-yl)-1H-pyrazol-1-yl]propanenitrile bis(trifluoroacetate)]
IC50 ([1]; Assay Conditions 1 mM ATP): < 50 nM
JAK2/JAK1 IC50 ratio (Jak2 (a.a. 828-1132); Assay Conditions 1 mM ATP): 7.0

N#CC[C@@H]([C@H]1CCN(c2cccc(Cl)c2C#N)C1)n1cc(-c2ncnc3[nH]ccc23)cn1 [Example 48, 2-chloro-6-((3S)-3-{(1S)-2-cyano-1-[4-(7H-pyrrolo[2,3-d]pyrimidin-4-yl)-1H-pyrazol-1-yl]ethyl}pyrrolidin-1-yl)benzonitrile trifluoroacetate]
IC50 ([1]; Assay Conditions 1 mM ATP): < 50 nM
JAK2/JAK1 IC50 ratio (Jak2 (a.a. 828-1132); Assay Conditions 1 mM ATP): >30

CS(=O)(=O)c1ccnc(N2CC[C@H]([C@H](CC#N)n3cc(-c4ncnc5[nH]ccc45)cn3)C2)c1C#N [Example 128, 2-((3S)-3-{(1S)-2-cyano-1-[4-(7H-pyrrolo[2,3-d]pyrimidin-4-yl)-1H-pyrazol-1-yl]ethyl}pyrrolidin-1-yl)-4-(methylsulfonyl)nicotinonitrile]
IC50 ([1]; Assay Conditions 1 mM ATP): < 50 nM
JAK2/JAK1 IC50 ratio (Jak2 (a.a. 828-1132); Assay Conditions 1 mM ATP): 4.7

COCc1c(F)cnc(N2CC[C@H]([C@H](CC#N)n3cc(-c4ncnc5[nH]ccc45)cn3)C2)c1C#N [Example 95, 2-((3S)-3-{(1S)-2-cyano-1-[4-(7H-pyrrolo[2,3-d]pyrimidin-4-yl)-1H-pyrazol-1-yl]ethyl}pyrrolidin-1-yl)-5-fluoro-4-(methoxymethyl)nicotinonitrile bis(trifluoroacetate)]
IC50 ([1]; Assay Conditions 1 mM ATP): < 50 nM
JAK2/JAK1 IC50 ratio (Jak2 (a.a. 828-1132); Assay Conditions 1 mM ATP): 16.4

N#CC[C@@H]([C@H]1CCN(c2nc(Cl)c(N)cc2F)C1)n1cc(-c2ncnc3[nH]ccc23)cn1 [Example 91A, (S)-3-(4-(7H-pyrrolo[2,3-d]pyrimidin-4-yl)-1H-pyrazol-1-yl)-3-((S)-1-(5-amino-6-chloro-3-fluoropyridin-2-yl)pyrrolidin-3-yl)propanenitrile bis(trifluoroacetate)]
IC50 ([1]; Assay Conditions 1 mM ATP): < 50 nM
JAK2/JAK1 IC50 ratio (Jak2 (a.a. 828-1132); Assay Conditions 1 mM ATP): 6.9
